Experimental data as given in US5095014A, “3-(2-chloro-4-(trifluoromethyl)phenoxy)-1-azetidine carboxamides having anticonvulsant activity” (A. H. Robins Company, Incorporated, priority 1990, dated 1992).

Experiments:
[1] = test system: tonic seizures (electrically induced convulsions); assay: Maximal Electroshock (percent protection from tonic seizures); assay type: in vivo; conditions: mice; for ED50: Mus musculus, ip, 0.5 h, intraperitoneal, 30 minutes prior to electrical challenge
Procedure: (§1) The pharmacological tests used are (1) maximal electroshock and (2) pentylenetetrazole (Metrazole®) chemical challenge where the percent protection afforded by the test compounds against convulsions induced by electrical stimulus or by the drug Metrazole is determined. These test procedures are described further hereinbelow.
(§2) The pharmacological test data are expressed either as an ED50 (mg/kg) or percent protection/dose (mg/kg) for test compounds administered intraperitoneally (IP) in mice.
Adult female mice in groups of eight were administered the test drug intraperitoneally (usually 100 mg/kg initially for screening) in liquid carrier (10 mg/ml), usually physiological saline or water, 30 minutes prior to electrical challenge. Animals were challenged electrically by placing brass electrodes on the corneas and applying an electrical stimulus (60 Hz, 5 m sec. pulse width, 34 mA intensity) for 0.2 seconds by way of a Grass Stimulator® and constant current unit and a Hunter Timer®. The absence of tonic seizures upon cessation of the stimuli was scored as protection in that animal. The number of animals protected from tonic seizures at a given dose of test drug was determined. […] EXP. THER. 96, 99-113.

[2] = test system: pentylenetetrazol-induced convulsions; assay: Metrazole Chemical Challenge (Swinyard Method); assay type: in vivo; conditions: mice; for ED50: Mus musculus, ip, 0.5 h, intraperitoneal, 1/2 hour before Metrazole 80 mg/kg S.C.
Procedure: as §1, §2
Groups of 8 adult female mice were randomly assigned to dosage groups according to the method of Steel, R. G. D., and Torrie, J. H. (1960) in "Principles and Procedures of Statistics", McGraw-Hill Book Company, Inc., pp 99-100, pp 428-31. Each mouse was identified with a color code on its tail. The test compounds were administered as solutions or suspensions in 10 ml/kg mouse body weight of 0.5% aqueous methyl cellulose within 15 minutes of preparation of the suspension. Metrazole® (pentylenetetrazol) was prepared as a solution in physiological saline. The mice were not fasted prior to the test. Eight mice were tested at each dosage level.
Each mouse received one dose of the test drug (usually 100 mg/kg for screening) in the 0.5% aqueous methylcellulose or the control article (0.5% aqueous methylcellulose alone) intraperitoneally. Metrazole (80 mg/kg S.C.) was then given in a loose fold of skin on the back of the neck, 1/2 hour after the test compound or control article was given. All injections were given in a volume of 10 ml/kg mouse body weight. […] Anticonvulsant data were tabulated as the percent protection, i.e., [formula] […] Hefner Publishing Co.

Row | SMILES | ED50 [1] | ED50 [2] | other results
1 | NC(=O)N1CC(Oc2ccc(C(F)(F)F)cc2Cl)C1 [Example 1, 3-[2-Chloro-4-(trifluoromethyl)phenoxy]-1-azetidinecarboxamide] | 8.5 mg/kg | 11.5 mg/kg | –
2 | CNC(=O)N1CC(Oc2ccc(C(F)(F)F)cc2Cl)C1 [Example 2, 3-[2-Chloro-4-(trifluoromethyl)phenoxy]-N-methyl-1-azetidinecarboxamide] | 6.4 mg/kg | 11.3 mg/kg | –
3 | C=CCNC(=O)N1CC(Oc2ccc(C(F)(F)F)cc2Cl)C1 [Example 3, 3-[2-Chloro-4-(trifluoromethyl)phenoxy]-N-(2-propenyl)-1-azetidinecarboxamide] | 9.5 mg/kg | – | Metrazole % protected ([2]; dose 10 mg/kg IP): 12.5%; Metrazole % protected ([2]; dose 36 mg/kg IP): 0%
4 | CN(C)C(=O)N1CC(Oc2ccc(C(F)(F)F)cc2Cl)C1 [Example 4, 3-[2-Chloro-4-(trifluoromethyl)phenoxy]-N,N-dimethyl-1-azetidinecarboxamide] | 8.2 mg/kg | – | Metrazole % protected ([2]; dose 31.6 mg/kg IP): 37.5%; Metrazole % protected ([2]; dose 52 mg/kg IP): 0%; Metrazole % protected ([2]; dose 100 mg/kg IP): 0%
5 | CNC(=O)N1CC(Oc2ccccc2C(F)(F)F)C1 [Example 5, 3-[2-(Trifluoromethyl)phenoxy]-N-methyl-1-azetidinecarboxamide] | 125 mg/kg | – | Metrazole % protected ([2]; dose 120 mg/kg IP): 0%
6 | CNC(=O)N1CC(Oc2cccc(C(F)(F)F)c2)C1 [Example 6, N-Methyl-3-[3-(trifluoromethyl)phenoxy]-1-azetidinecarboxamide] | 29 mg/kg | – | –
7 | CNC(=O)N1CC(Oc2ccc(C(F)(F)F)cc2)C1 [Example 7, 3-(4-Trifluoromethylphenoxy)-N-methyl-1-azetidinecarboxamide] | 25.7 mg/kg | 33 mg/kg | –
8 | CNC(=O)N1CC(Oc2ccccc2Cl)C1 [Example 8, 3-(2-Chlorophenoxy)-N-methyl-1-azetidinecarboxamide] | – | – | Electroshock % protected ([1]; dose 56.2 mg/kg IP): 0%; Metrazole % protected ([2]; dose 100 mg/kg IP): 0%
9 | CNC(=O)N1CC(Oc2cccc(Cl)c2)C1 [Example 9, 3-(3-Chlorophenoxy)-N-methyl-1-azetidinecarboxamide] | 45.5 mg/kg | – | Metrazole % protected ([2]; dose 100 mg/kg IP): 37.5%
10 | CNC(=O)N1CC(Oc2ccc(Cl)cc2)C1 [Example 10, 3-(4-Chlorophenoxy)-N-methyl-1-azetidinecarboxamide] | 23.8 mg/kg | 50 mg/kg | –
11 | NC(=O)N1CC(Oc2ccc(Cl)cc2Cl)C1 [Example 11, 3-(2,4-Dichlorophenoxy)-1-azetidinecarboxamide] | – | 31.6 mg/kg | Electroshock % protected ([1]; dose 17.8 mg/kg IP): 0%; Electroshock % protected ([1]; dose 31.6 mg/kg IP): 100%
12 | CN(C)C(=O)N1CC(Oc2ccc(Cl)cc2Cl)C1 [Example 12, 3-(2,4-Dichlorophenoxy)-N,N,-dimethyl-1-azetidinecarboxamide] | – | – | Electroshock % protected ([1]; dose 17.8 mg/kg IP): 0%; Electroshock % protected ([1]; dose 31.6 mg/kg IP): 100%
13 | CNC(=O)N1CC(Oc2ccc(Cl)cc2Cl)C1 [Example 13, 3-(2,4-Dichlorophenoxy)-N-methyl-1-azetidinecarboxamide] | 18.5 mg/kg | 40.9 mg/kg | –
14 | Cc1cccc(Cl)c1OC1CN(C(N)=O)C1 [Example 14, 3-(2-Chloro-6-methylphenoxy)-1-azetidinecarboxamide] | 81.5 mg/kg | – | –
15 | Cc1cccc(Cl)c1OC1CN(C(=O)N(C)C)C1 [Example 15, 3-(2-Chloro-6-methylphenoxy)-N,N-dimethyl-1-azetidinecarboxamide] | – | – | Electroshock % protected ([1]; dose 31.6 mg/kg IP): 37.5-62.5%
16 | CNC(=O)N1CC(Oc2c(C)cccc2Cl)C1 [Example 16, 3-(2-Chloro-6-methyphenoxy)-N-methyl-1-azetidinecarboxamide] | 53 mg/kg | – | –
17 | CNC(=O)N1CC(Oc2ccc(F)cc2Cl)C1 [Example 17, 3-(2-Chloro-4-fluorophenoxy)-N-methyl-1-azetidinecarboxamide] | 44.5 mg/kg | 32.8 mg/kg | –
18 | CNC(=O)N1CC(Oc2cc(C(F)(F)F)ccc2Cl)C1 [Example 18, 3-[2-Chloro-5-(trifluoromethyl)phenoxy]-N-methyl-1-azetidinecarboxamide] | – | – | Electroshock % protected ([1]; dose 56.2 mg/kg IP): 37.5%; Electroshock % protected ([1]; dose 100 mg/kg IP): 50%
19 | CNC(=O)N1CC(Oc2cc(C(F)(F)F)ccc2F)C1 [Example 19, 3-[2-Fluoro-5-(trifluoromethyl)phenoxy]-N-methyl-1-azetidine-carboxamide] | – | – | Electroshock % protected ([1]; dose 31.6 mg/kg IP): 50%; Electroshock % protected ([1]; dose 56.2 mg/kg IP): 50%
20 | CNC(=O)N1CC(Oc2ccc(Cl)c(Cl)c2)C1 [Example 20, 3-(3,4-Dichlorophenoxy)-N-methyl-1-azetidinecarboxamide] | 39.5 mg/kg | 49.5 mg/kg | –
